Columns and labels:
[1] = target: T1, M2_G15 fusion protein (M2 muscarinic receptor fused with the G15 G-protein alpha-subunit) (Homo sapiens, UniProt P08172); assay: agonist-stimulated […]GTPγS binding, membranes; format: biochemical; design: gene CHRM2; clone #3, except KA from all five clones
T1 sequence (P08172 1-466): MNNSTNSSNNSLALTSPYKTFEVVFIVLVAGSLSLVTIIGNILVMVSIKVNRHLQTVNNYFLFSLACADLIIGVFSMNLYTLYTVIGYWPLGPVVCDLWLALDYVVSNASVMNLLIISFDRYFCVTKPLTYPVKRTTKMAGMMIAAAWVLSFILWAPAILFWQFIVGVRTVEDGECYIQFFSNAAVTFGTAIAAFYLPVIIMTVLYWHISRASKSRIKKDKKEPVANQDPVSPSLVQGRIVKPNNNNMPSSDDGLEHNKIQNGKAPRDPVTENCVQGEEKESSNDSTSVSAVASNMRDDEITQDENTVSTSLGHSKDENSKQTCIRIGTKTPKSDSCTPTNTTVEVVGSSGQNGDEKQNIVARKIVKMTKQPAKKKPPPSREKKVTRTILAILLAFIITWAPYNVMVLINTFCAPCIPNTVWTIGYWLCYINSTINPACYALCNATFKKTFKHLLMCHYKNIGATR
T1 sequence (P30679 1-374 partner): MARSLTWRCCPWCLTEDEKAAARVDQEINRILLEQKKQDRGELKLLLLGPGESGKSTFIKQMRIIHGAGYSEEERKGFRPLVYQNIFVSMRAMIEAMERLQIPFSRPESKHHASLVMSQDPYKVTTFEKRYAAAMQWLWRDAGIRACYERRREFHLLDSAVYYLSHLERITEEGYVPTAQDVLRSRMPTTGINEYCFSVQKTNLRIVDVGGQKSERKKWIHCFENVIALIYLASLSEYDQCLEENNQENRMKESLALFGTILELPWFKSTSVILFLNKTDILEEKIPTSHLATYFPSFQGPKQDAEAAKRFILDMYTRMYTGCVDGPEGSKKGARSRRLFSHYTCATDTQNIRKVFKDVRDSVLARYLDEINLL

[2] = target: T1, M2_G15 fusion protein (M2 muscarinic receptor fused with the G15 G-protein alpha-subunit); assay: biochemical; design: gene CHRM2
[3] = target: T2, M4_G15 fusion protein (M4 muscarinic receptor fused with the G15 G-protein alpha-subunit) (Homo sapiens, UniProt P08173); assay: biochemical; design: gene CHRM4
T2 sequence (P08173 1-479): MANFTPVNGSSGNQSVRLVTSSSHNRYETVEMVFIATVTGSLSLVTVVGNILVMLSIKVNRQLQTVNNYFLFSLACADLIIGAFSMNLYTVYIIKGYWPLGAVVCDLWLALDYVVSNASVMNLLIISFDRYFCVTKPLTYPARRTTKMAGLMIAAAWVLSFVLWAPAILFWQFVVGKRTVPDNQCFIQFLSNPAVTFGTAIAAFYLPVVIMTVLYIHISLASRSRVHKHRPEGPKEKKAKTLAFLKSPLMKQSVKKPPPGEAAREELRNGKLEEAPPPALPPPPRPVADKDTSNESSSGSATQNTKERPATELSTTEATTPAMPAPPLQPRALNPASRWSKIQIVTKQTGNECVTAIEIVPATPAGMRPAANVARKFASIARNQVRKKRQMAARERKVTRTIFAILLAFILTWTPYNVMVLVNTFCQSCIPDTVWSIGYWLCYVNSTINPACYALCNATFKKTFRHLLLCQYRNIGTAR
T2 sequence (P30679 1-374 partner): T1 sequence (P30679 1-374 partner)

[4] = target: T2, M4_G15 fusion protein (M4 muscarinic receptor fused with the G15 G-protein alpha-subunit); assay: agonist-stimulated […]GTPγS binding, membranes; format: biochemical; design: gene CHRM4; M4 fused via ARATR linker to N-terminus of G15 alpha-subunit (one fused chain); clone #3, except KA from all five clones

pEC50 ([1]; clone #[…], agonist; […] […]GTPγS, […] GDP, […] MgCl2, […] °C)	SMILES	Ki [2] [nM]	Ki [3] [nM]	EC50 [4] [nM]	EC50 [1] [nM]
6.84 ± 0.03	Clc1ccc2c(c1)N=C(N1CCNCC1)c1ccccc1N2 [NDMC]	–	–	–	–
–	O=C1CCCN1CC#CCN1CCCC1 [oxotremorine]	1660	1480	17	18.6

Source: article PMC6420642, “Applications and limitations of fitting of the operational model to determine relative efficacies of agonists” (Scientific Reports, 2019)
